Patent US20110294728A1, “Antiviral Polypeptides” (priority 2008, published 2011)
Read-outs that look alike come from different tables or passages of the source. Where a SMILES comes first, the peptide text is derived from it. Bridges are numbered along the chain shown (N, C = ends). Where no end group is shown, it is not given here.

How the values were obtained:
HIV-1 RT = target: T1, HIV-1 RT (Human immunodeficiency virus type 1 group M subtype B, UniProt P03366); assay: biochemical
T1 construct: The heterodimeric p66/p51 RT was eluted with an imidazole gradient; p66 and p51 derived from p66 by proteolytic cleavage of the C-terminal RNAse H domain; made in house; host or cells: E. coli (M15 for the His-tagged subunits)
Description: RNA-dependent-DNA RT-polymerase activity was measured in a standard reaction assay using poly(rA)-(dT)15 as template/primer as described in Restle et al. (1990). Ten microliters of reverse transcriptase (RT) at 20 nM was incubated at 37° C. for 30 min with 20 μL of reaction buffer (50 mM Tris, pH 8.0, 80 mM KCl, 6 mM MgCl2, 5 mM DTT, 0.15 μM poly(rA-dT), 15 μM dTTP, 0.3 μCi 3H-dTTP). For peptide evaluation, HIV-1 RT was incubated with increasing concentrations of peptide inhibitors for […], and polymerase reaction was initiated by adding reaction buffer. Reactions were stopped by precipitation of nucleic acids with 5 ml of 20% trichloroacetic acid (TCA) solution for 2 h on ice, then filtered using a multiwell-sample collector (Millipore), and washed with 5% TCA solution. Filters were dried at 55° C. for 30 min and radionucleotide incorporation was determined by liquid scintillation spectrometry.
A series of peptides have been derived from Pep-A sequence (SEQ ID NO: 28), which is derived from HIV-1 reverse transcriptase. First, P1 peptide (SEQ ID NO: 1) was obtained by removing the N-terminal arginine of Pep-A. Then, additional peptides were generated by performing an alanine scan on P1. P1-derived peptides were evaluated using a standard polymerase RT assay. Reported data correspond to the mean of three separate experiments.

HIV-1-LAI strain = tested on: HIV-1-LAI strain
Description: The anti-HIV activities of the peptides were assayed according to the methods described in Roisin et al. (2004). Phytohemagglutinin-P(PHA-P)-activated peripheral blood mononuclear cells (PBMC) treated by increasing concentrations of peptide (from 100 to 0.1 nM), one hour later, were infected with hundred 50% tissue culture infectious doses (TCID50) per 100,000 cells of the HIV-1-LAI strain (Barre-Sinoussi et al., 1983). This virus was amplified in vitro on PHA-P-activated PBMC. Viral stock was titrated using PHA-P-activated PBMC, and 50% TCID50 were calculated using Kärber's formula (Kärber, 1931). Samples were maintained throughout the culture, and cell supernatants were collected at day 7 post-infection and stored at −20° C. Viral replication was measured by quantifying reverse transcriptase (RT) activity in cell culture supernatants. In parallel, cytotoxicity of the compounds was evaluated in uninfected PHA-P-activated PBMC by colorimetric 3-(4-5 dimethylthiazol-2-yl)2,5diphenyl tetrazolium bromite (MTT) assay on day 7 (as described in Mossmann, 1983). Experiments were performed in triplicate and repeated with another blood donor. Data analyses were performed using SofiMax® Pro 4.6 microcomputer software: percent of inhibition of RT activity or of cell viability were plotted vs concentration and fitted with quadratic curves; 50% effective doses (ED50) and cytotoxic doses (CD50) were calculated.
In order to avoid any limitation due to the poor ability of peptides to cross cellular membranes, they were associated to the peptide-based nanoparticle delivery system Pep-1 (SEQ ID NO: 29), at a 1/10 molar ratio.

HIV-1 integrase [1] = target: T2, HIV-1 integrase (Human immunodeficiency virus type 1 group M subtype B, UniProt P04585); assay: biochemical; type: binding
T2 construct: Integrase is a 32 kDA viral protein that is biologically active under a multimeric form
Description: Fluorescein-labeled peptides (40 nM) were mixed with varying concentrations of integrase in 20 mM Tris pH 7.2, 50 mM NaCl, 10 mM MgCl2, and the r values were recorded.
Effect of the different peptides on the integrase (IN) activity, DNA binding and IN/DNA dissociation were evaluated as described in Example III.1 above, using fluorescence polarization and anisotropy measurements. Binding constant of the peptide for IN was determined by steady state fluorescence and anisotropy.

HIV-1 integrase [2] = target: T2, HIV-1 integrase; assay: biochemical
Description: (§1) The simultaneous measurement of integrase-DNA interaction and subsequent 3′-processing activity by steady-state fluorescence anisotropy was performed as described in Guiot et al. (2006). […] After the initial DNA-binding step (performed at 25° C.), the 3′-processing activity was measured at 37° C. by fixed-time experiments: The reaction was stopped at varying times by adding SDS (0.25% final) which disrupts all IN-DNA complexes in the sample. The IN-mediated cleavage of the terminal GT dinucleotide (labeled by fluorescein on the 3′-end) leads to a significant decrease of r as compared to the r value corresponding to the fluorescein-labeled unprocessed DNA substrate. The fraction of released dinucleotide is calculated by using Eq. (1): […]

wild type HIV 1 virus = assay: HIV propagation in Hu-PBL-SCID mice, wild type virus; type: in vivo, Hu-PBL-SCID transgenic mice; conditions: 20 mg/kg; peptides formulated with CADY-2c/CADY-1S1; HIV-1 DNA copies in splenocyte extracts
Description: (§2) The potency of the peptides p27 (SEQ ID NO: 25) and p16 (SEQ ID NO: 19) was assessed in vivo following intravenous challenge of Hu-PBL-SCID transgenic mice (in which human (hu) peripheral blood leukocytes (PBLs) from healthy Epstein-Barr virus (EBV)-seropositive donors are injected into severe combined immunodeficiency (SCID) mice; Mosier et al., 1988). The mice (6 to 8 week-old male mice, 5 animals per group) were infected with wild type HIV 1 virus or efavirenz-resistance HIV strain harbouring K103N and N341V mutations on reverse transcriptase. Infected mice were treated with peptides formulated with the peptide vector CADY-2c (see above) in water at a ratio 1/20, and then particles were coated with 3% of CADY-1S1 (see above), as described in International Application WO 2007/069090. Particles were injected intravenously (100 μl) every 2 days for 1 week, then HIV-1 copy were quantified by quantitative PCR. Efavirenz (a non-nucleoside reverse transcriptase inhibitor; EFZ) was used a positive drug control.

[3] = tested on: efavirenz-resistance HIV strain harbouring K103N and N341V mutations on reverse transcriptase; type: in vivo, Hu-PBL-SCID transgenic mice; conditions: EFZ resistance strain; 20 mg/kg/day; peptides formulated with CADY-2c/CADY-1S1
Description: as §2

IN/DNA complexes [4] = target: T3, IN/DNA complexes (Human immunodeficiency virus type 1 group M subtype B, UniProt P04585); assay: DNA-binding of integrase, fluorescence anisotropy; type: biochemical, HIV-1
Description: as §1

IN/DNA complexes [5] = target: T3, IN/DNA complexes; assay: Dissociation of pre-formed IN-DNA substrate complexes; type: biochemical, HIV-1
Description: For dissociation experiments, IN-DNA substrate complexes were pre-formed at 25° C. before addition of peptides. The peptide-mediated dissociation of complexes was then studied at the same temperature by measuring the decrease in the r value as a function of time.

IN/LEDGF complex = IN/LEDGF complex (Human immunodeficiency virus type 1 group M subtype B, UniProt P04585); assay: Dissociation of IN/LEDGF complex (AlphaScreen, immunoprecipitation); type: biochemical
Description: Dissociation of IN/LEDGF complex was measured by fluorescence resonance energy transfer (AlphaScreen® technology) and immunoprecipitation experiments: • Amplified Luminescent Proximity Homogeneous Assay (ALPHA): when the proteins (IN and LEDGF), linked to acceptor and donor beads, interact together (i.e., are into close proximity), a photosignal (a high amplified signal with output in the 520-560 nm range) is detected; when the proteins are not in close proximity, the reactive oxygen decays and there is no detectable signal generated; • immunoprecipitation (IP) was performed using polyclonal anti LEDGF antibodies (purchased from Santa Cruz Biotechnology, USA) and polyclonal HA antibodies (purchased from Eurogentec, Belgium). Cell line expression HA-tagged integrase was using for the experiment in the presence of increasing concentrations of peptide inhibitors.

[6] = read-out: EC50 HIV-1 lai, Table 10

| Compound | Ki (HIV-1 RT) [µM] | EC50 (HIV-1-LAI strain; [6]) [µM] | Kd (HIV-1 integrase [1]) [µM] | Ki (HIV-1 integrase [2]) [µM] | HIV propagation in vivo (in words) (wild type HIV 1 virus) | reduction of viral propagation [3] | reduction of efficiency (higher Ki) relative to PAW (HIV-1 RT; relative to PAW) [fold] | EC50 (HIV-1 integrase [2]) [µM] | EC50 (IN/DNA complexes [4]) [µM] | EC50 (IN/DNA complexes [5]) [µM] | EC50 (IN/LEDGF complex) [µM] | EC50 (HIV-1-LAI strain; read-out: EC50, antiviral activity, peptide complexed with Pep-1) [µM] |
| --- | --- | --- | --- | --- | --- | --- | --- | --- | --- | --- | --- | --- |
| CC(C)C[C@@H]1NC(=O)[C@H](Cc2c[nH]c3ccccc23)NC(=O)[C@H](CCCCN)NC(=O)[C@H]([C@@H](C)O)NC(=O)CNC(=O)[C@@H](N)CSSC[C@@H](C(=O)O)NC(=O)[C@H](CC(C)C)NC(=O)[C@@H]2CCCN2C(=O)[C@H](Cc2c[nH]c3ccccc23)NC(=O)[C@H](C(C)C)NC(=O)[C@H](CCC(=O)O)NC(=O)[C@H]([C@@H](C)O)NC1=O [Peptide P16C1] (H-CGTKWLTEVWPLC-OH; disulfide 1-13) | 32.1 | 0.0025 | 0.09 | 4.3 | – | – | – | – | – | – | – | – |
| O=C1Nc2ccc(Cl)cc2[C@@](C#CC2CC2)(C(F)(F)F)O1 [Efavirenz, reference compound] | – | – | – | – | block HIV propagation in vivo | no effect | – | – | – | – | – | – |
| CC[C@H](C)[C@@H]1NC(=O)[C@H](Cc2c[nH]c3ccccc23)NC(=O)[C@H](CCC(=O)O)NC(=O)[C@H]([C@@H](C)O)NC(=O)[C@H](CC(C)C)NC(=O)[C@H](Cc2c[nH]c3ccccc23)NC(=O)[C@H](CCCCN)NC(=O)[C@H]([C@@H](C)O)NC(=O)CNC(=O)[C@@H](N)CSSC[C@@H](C(=O)O)NC(=O)[C@H](CCC(=O)O)NC(=O)[C@H](C)NC(=O)[C@H](CCC(=O)O)NC(=O)[C@H](C)NC(=O)[C@H]([C@@H](C)O)NC(=O)[C@H](CC(C)C)NC(=O)[C@@H]2CCCN2C1=O [PAW-C1] (H-CGTKWLTEWIPLTAEAEC-OH; disulfide 1-18) | 0.2 | 0.0012 | 0.29 | 21 | – | – | – | – | – | – | – | – |
| KWLTEWIPLTAEAE [Peptide P26] | 1.8 ± 0.7 | – | 0.32 | – | – | – | 2.5 | 28 | 54 | 67 | > 50 | – |
| GTKWLTEWIPL [Peptide P24] | 0.7 ± 0.05 | – | 0.35 | – | – | – | – | 33 | 35 | 21 | 13 | 0.0023 |
